Data on 21 compounds can be found in patent publication US8524738B2, “Quinolinones and quinoxalinones as antibacterial composition” (Toyama Chemical Co., Ltd., priority 2005, dated 2013).

Experiment [1] deals with Staphylococcus aureus (S. aureus FDA209P). The experiment can be described thus: Sensitivity Test 1: antibacterial activity (MIC) by micro-dilution method. It counts as cell-based. The method, then: (§1) Test compounds were initially dissolved in dimethylsulfoxide. Antibacterial activities (MICs) of the same compounds were determined by the micro-dilution method as recommended by the Japanese Society of Chemotherapy.
(§2) Staphylococcus aureus (S. aureus FDA209P) was used as the test organism. The bacterial cells were grown overnight at 35° C. on Mueller-Hinton agar (MHA) plates. The bacterial cells were then suspended in sterile saline and adjusted to the turbidity of a 0.5 McFarland standard. The inoculum was prepared by 10-fold dilution of this suspension. Approximately 0.005 mL aliquots of the inoculum prepared above were subsequently inoculated into Cation-adjusted Mueller-Hinton broth (CAMHB, 100 μL/well) including the test compounds for overnight incubation at 35° C.
(In broth dilution the organism is exposed to a series of concentrations in liquid medium.)

For experiment [2], the system named is Methicillin-resistant Staphylococcus aureus (S. aureus F-3095). The experiment can be described thus: Sensitivity Test 2: antibacterial activity (MIC) by micro-dilution method. It is filed as cell-based. The method, then: as §1, §2
Methicillin-resistant Staphylococcus aureus (S. aureus F-3095) was used as the test organism. Antibacterial activities (MICs) were determined in the same manner as in Test Example 1.

A further experiment concerns S. aureus Smith. In words: Infection Test: mice infected intraperitoneally with S. aureus Smith. It is filed as in vivo. The note with it: ICR mice, 5 per group; S. aureus Smith i.p.; 10 mg/kg subcutaneously once at 1 hour after infection; survivors recorded 3 days after infection. On the procedure:
S. aureus Smith which was grown overnight at 37° C. on Mueller-Hinton agar (MHA) plates were suspended to give a final concentration of 10^9 CFU/mL. The inoculum was prepared by diluting this suspension 10-fold in 1/15 mol/L phosphate buffer (pH 7) containing 5.6% mucin. ICR mice (4 to 4.5 weeks of age, male, 5 mice per group) were intraperitoneally administered with the inoculum (approximately 2×10^7 CFU per mice) to induce infection.
After dissolving the test compounds in 0.1 mol/L hydrochloric acid, 20% 2-hydroxypropyl-β-cyclodextrin (HP-β-CD) or a mixture of 20% HP-β-CD and 0.1 mol/L hydrochloric acid at a proportion of 1:1 was added to give a final concentration of 1 mg/mL. Each of the test compound solutions (10 mg/kg) was subcutaneously administered once to a group of mice at 1 hour after infection. The control group was administered with 10% HP-β-CD. The mice were observed daily and the number of surviving mice in each group was recorded 3 days after infection.

Setting [3] is: S. aureus FDA209P, CAMHB, overnight incubation at 35° C., lowest concentration with virtually no growth, read-out: MIC.
Where [4] appears, read: Methicillin-resistant S. aureus F-3095, same manner as in Test Example 1, read-out: MIC.

Molecules are shown by their SMILES. In brackets after ≈: the same amount, converted by molar mass. Where a name gives a salt, the structure may show the parent alone. Read-outs that look alike come from different tables or passages of the source.

A word on the MIC: it is the smallest concentration in the dilution series that meets the test's criterion for growth inhibition. In the case of `COc1ccc2c(C)cc(=O)n(CCN3CCC(NCc4ccc5c(c4)OCCO5)CC3)c2c1` [Example 2, 1-(2-(4-((2,3-dihydro-1,4-benzodioxin-6-ylmethyl)amino)piperidin-1-yl)ethyl)-7-methoxy-4-methylquinolin-2(1H)-one], the MIC in experiment [1] (setting [3]) and in experiment [2] was 0.0313 µg/mL (≈ 0.0675 µM) throughout. For the same compound, the “Number of surviving mice” value with S. aureus Smith worked out at 4. For `COc1ccc2ccc(=O)n(CCN3CCC(NCc4cc5c(cn4)OCCO5)CC3)c2c1` [Example 64, 1-(2-(4-((2,3-dihydro(1,4)dioxino(2,3-c)pyridin-7-ylmethyl)amino)piperidin-1-yl)ethyl)-7-methoxyquinolin-2(1H)-one], the MIC in experiment [1] (setting [3]) and in experiment [2] (setting [4]) was 0.0156 µg/mL (≈ 0.0346 µM) throughout. In the case of `COc1ccc2ncc(=O)n(CCN3CCC(NCc4ccc5c(c4)NC(=O)CS5)CC3)c2c1` [Example 91, 6-(((1-(2-(7-methoxy-2-oxoquinoxaline-1-(2H)-yl)ethyl)piperidin-4-yl)amino)methyl)-2H-1,4-benzothiazine-3(4H)-one], the minimum inhibitory concentration (MIC) in experiment [1] (setting [3]) and in experiment [2] (setting [4]) was 0.0313 µg/mL (≈ 0.0653 µM) throughout. For the same compound, the “Number of surviving mice” value in the experiment on S. aureus Smith is listed as 5.

On to `COc1ccc2ncc(=O)n(CCN3CCC(NCc4ccc5c(c4)OCCO5)CC3)c2c1` [Example 117, 1-(2-(4-((2,3-dihydro-1,4-benzodioxin-6-ylmethyl)amino)piperidin-1-yl)ethyl)-7-methoxyquinoxalin-2(1H)-one hydrochloride], for which the minimal inhibitory concentration (MIC) in experiment [1] (FDA209P) and in experiment [2] was 0.0313 µg/mL in each case. Besides, in the experiment with S. aureus Smith, the “Number of surviving mice” value came out at 5.

On to `COc1ccc2ncc(=O)n(CCN3CCC(NCc4ccc5c(n4)NC(=O)CS5)CC3)c2c1` [Example 179, 6-(((1-(2-(7-methoxy-2-oxoquinoxalin-1(2H)-yl)ethyl)piperidin-4-yl)amino)methyl)-2H-pyrido(3,2-b)(1,4)thiazin-3(4H)-one], for which the minimal inhibitory concentration (MIC) in experiment [1] (setting [3]) was 0.0156 µg/mL (≈ 0.0325 µM); in experiment [2] (setting [4]) it was 0.0313 µg/mL (≈ 0.0651 µM). Moreover, the “Number of surviving mice” value with S. aureus Smith is recorded as 5. In the case of `CNC(=O)c1cc(=O)n(CCN2CCC(NCC#Cc3ccccc3)CC2)c2cc(OC)ccc12` [Example 344, 7-methoxy-N-methyl-2-oxo-1-(2-(4-(3-phenyl-2-propyn-1-ylamino)piperidin-1-yl)ethyl)-1,2-dihydroquinoline-4-carboxamide hydrochloride], the MIC in experiment [1] (FDA209P) came to 0.125 µg/mL.

Regarding `O=c1cnc2ccc(F)cc2n1CCN1CCC(NCc2ccc3c(c2)OCCO3)CC1` [Example 346, (1-(2-(4-((2,3-dihydro-1,4-benzodioxin-6-ylmethyl)amino)piperidin-1-yl)ethyl)-7-fluoroquinoxalin-2(1H)-one hydrochloride], the MIC in experiment [1] (setting [3]) came to 0.0156 µg/mL. With `CCc1ccc(CNC2CCN(CCn3c(=O)cnc4ccc(F)cc43)CC2)cc1` [Example 347, 1-(2-(4-(4-ethylbenzylamino)piperidin-1-yl)ethyl)-7-fluoroquinoxalin-2(1H)-one hydrochloride], the minimum inhibitory concentration (MIC) in experiment [1] (FDA209P) was found to be 0.0156 µg/mL. Compound `O=c1cnc2ccc(F)cc2n1CCN1CCC(NCc2cc3ccccc3s2)CC1` [Example 349, 1-(2-(4-((benzo[b]thiophen-2-yl)methylamino)piperidin-1-yl)ethyl)-7-fluoroquinoxalin-2(1H)-one hydrochloride] gave an MIC in experiment [1] (FDA209P) of 0.0156 µg/mL. Still for that read-out and setting: for `O=c1cnc2ccc(F)cc2n1CCN1CCC(NCc2cc(-c3cccs3)on2)CC1` [Example 351, 7-fluoro-1-(2-(4-((5-(thiophen-2-yl)isoxazol-3-yl)methylamino)piperidin-1-yl)ethyl)quinoxalin-2(1H)-one hydrochloride] the value was 0.0078 µg/mL; for `CCc1ccc(CNC2CCN(CCn3c(=O)cnc4ccc(OC)cc43)CC2)cc1` [Example 353, 1-(2-(4-(4-ethylbenzylamino)piperidin-1-yl)ethyl)-7-methoxyquinoxalin-2(1H)-one hydrochloride], 0.0156 µg/mL. `COc1ccc2ncc(=O)n(CCN3CCC(NCc4ccc(C)c(F)c4)CC3)c2c1` [Example 354, 1-(2-(4-(3-fluoro-4-methylbenzylamino)piperidin-1-yl)ethyl)-7-methoxyquinoxalin-2(1H)-one hydrochloride]: the lowest concentration to inhibit growth in experiment [1] (FDA209P) (MIC) was 0.0078 µg/mL.

As to `COc1ccc2ncc(=O)n(CCN3CCC(NCc4nc5c(cc4Cl)SCC(=O)N5)CC3)c2c1` [Example 355, 1-(2-(4-((7-chloro-3-oxo-3,4-dihydro-2H-pyrido[3,2-b][1,4]thiazin-6-yl)methylamino)piperidin-1-yl)ethyl)-7-methoxyquinoxalin-2(1H)-one hydrochloride], in experiment [1] (FDA209P), the MIC came to 0.0156 µg/mL. `COc1ccc2ncc(=O)n(CCN3CCC(NCc4ccc5ccccc5c4)CC3)c2c1` [Example 356, 7-methoxy-1-(2-(4-((naphthalen-2-yl)methylamino)piperidin-1-yl)ethyl)quinoxalin-2(1H)-one hydrochloride] yielded an MIC in experiment [1] (FDA209P) of 0.0156 µg/mL. Take `COc1ccc2ncc(=O)n(CCN3CCC(NCc4cc5ccccc5s4)CC3)c2c1` [Example 357, 1-(2-(4-((benzo[b]thiophen-2-yl)methylamino)piperidin-1-yl)ethyl)-7-methoxyquinoxalin-2(1H)-one hydrochloride]: in experiment [1] (FDA209P), the minimal inhibitory concentration (MIC) came to 0.0156 µg/mL. As for `COc1ccc2ncc(=O)n(CCN3CCC(NCc4cc5sccc5s4)CC3)c2c1` [Example 360, 1-(2-(4-(((thieno[3,2-b]thiophen-2-yl)methylamino)piperidin-1-yl)ethyl)-7-methoxyquinoxalin-2(1H)-one hydrochloride], the MIC in experiment [1] (setting [3]) was 0.0078 µg/mL. `O=c1cnc2ccc(Br)cc2n1CCN1CCC(NCc2ccc3c(c2)OCCO3)CC1` [Example 363, 1-(2-(4-((2,3-dihydro-1,4-benzodioxin-6-ylmethyl)amino)piperidin-1-yl)ethyl)-7-bromoquinoxalin-2(1H)-one hydrochloride] returned a minimum inhibitory concentration (MIC) in experiment [1] (FDA209P) of 0.0313 µg/mL.

In the case of `O=C1CSc2cc(Cl)c(CNC3CCN(CCn4c(=O)cnc5ccc(F)cc54)CC3)nc2N1` [Example 368, 1-(2-(4-((7-chloro-3-oxo-3,4-dihydro-2H-pyrido[3,2-b][1,4]thiazin-6-yl)methylamino)piperidin-1-yl)ethyl)-7-fluoroquinoxalin-2(1H)-one hydrochloride], the MIC in experiment [1] (FDA209P) was found to be 0.0156 µg/mL.

Compound `COc1ccc2ncc(=O)n(CCN3CCC(NCc4ccc5c(c4)SCCS5)CC3)c2c1` [Example 370, 1-(2-(4-((2,3-dihydro-1,4-benzodithiin-6-ylmethyl)amino)piperidin-1-yl)ethyl)-7-methoxyquinoxalin-2(1H)-one hydrochloride] showed an MIC in experiment [1] (FDA209P) of 0.0039 µg/mL. Still for that read-out and setting: with `COc1ccc2ncc(=O)n(CCN3CCC(NCc4cc5c(cn4)OCCCO5)CC3)c2c1` [Example 375, hydrochloride] the figure was 0.0156 µg/mL; with `COc1ccc2ncc(=O)n(CCN3CCC(NCc4ccc5c(n4)NC(=O)CO5)CC3)c2c1` [Example 400, 7-methoxy-1-(2-(4-((3-oxo-3,4-dihydro-2H-pyrido[3,2-b][1,4]oxazin-6-yl)methylamino)piperidin-1-yl)ethyl)quinoxalin-2(1H)-one hydrochloride], 0.0156 µg/mL.
